Experimental data reported in ChEMBL document CHEMBL1926664, “Synthesis and antiproliferative evaluation of 6-aryl-11-iminoindeno[1,2-c]quinoline derivatives” (2011).

Experiments:
A549 = test: Growth inhibition of human A549 cells after 72 hrs by XTT assay; format: functional; conditions: A549, 72 h
MDA-MB-231 = test: Growth inhibition of human MDA-MB-231 cells after 72 hrs by XTT assay; format: functional; conditions: MDA-MB-231, 72 h
[1] = Growth inhibition of human Hep3B cells after 72 hrs by XTT assay; format: functional, Hep 3B2
MCF7 = test: Growth inhibition of human MCF7 cells after 72 hrs by XTT assay; format: functional; conditions: MCF7, 72 h
[2] = Growth inhibition of human H1299 cells after 72 hrs by XTT assay; format: functional; conditions: NCI-H1299, 72 h
HepG2 = test: Growth inhibition of human HepG2 cells after 72 hrs by XTT assay; format: functional; conditions: HepG2, 72 h

Row | GI50 (A549) [nM] | GI50 (MDA-MB-231) [µM] | GI50 (MCF7) [µM] | GI50 (HepG2) [µM] | Structure (SMILES) | GI50 [1] [nM] | GI50 [2] [µM]
1 | 2100 | 3.07 | > 10 | 4.96 | CN(C)CCCO/N=C1\c2cc(OCCCN(C)C)ccc2-c2c(-c3ccc(O)cc3)nc3ccccc3c21 | 5410 | 5.3
2 | 420 | 0.67 | 6.25 | 0.66 | CN(C)CCCO/N=C1\c2cc(OCCCN(C)C)ccc2-c2c(-c3ccc(O)cc3)nc3ccc(F)cc3c21 | 560 | 0.84
3 | 9240 | 5.99 | 6.36 | 9.46 | COc1ccc(-c2nc3ccc(F)cc3c3c2-c2ccc(OC)cc2/C3=N\OCCN2CCCC2)cc1 | 3110 | 3.15
4 | > 10000 | 8.41 | 8.77 | > 10 | O/N=C1\c2cc(O)ccc2-c2c(-c3ccc(O)cc3)nc3ccc(F)cc3c21 | 7600 | > 10
5 | 6460 | 4.74 | 6.28 | 6.24 | CN(C)CCCO/N=C1\c2cc(O)ccc2-c2c(-c3ccc(O)cc3)nc3ccc(F)cc3c21 | 690 | 6.3
6 | 2030 | 0.63 | 6.65 | 3.77 | CN(C)CCCO/N=C1\c2cc(O)ccc2-c2c(-c3ccc(OCCCN(C)C)cc3)nc3ccccc3c21 | 610 | 0.69
7 | > 10000 | 8.47 | > 10 | > 10 | O/N=C1\c2cc(O)ccc2-c2c(-c3ccc(O)cc3)nc3ccccc3c21 | > 10000 | > 10
8 | > 10000 | > 10 | > 10 | > 10 | COc1ccc(-c2nc3ccc(OC)cc3c3c2-c2ccc(OC)cc2/C3=N\O)cc1 | > 10000 | > 10
9 | 6690 | 7.01 | 6.57 | 6.54 | COc1ccc(-c2nc3ccccc3c3c2-c2ccc(OC)cc2/C3=N\OCCCN(C)C)cc1 | 3140 | 6.61
10 | 6620 | 6.13 | 6.3 | 5.95 | COc1ccc(-c2nc3ccc(OC)cc3c3c2-c2ccc(OC)cc2/C3=N\OCCCN(C)C)cc1 | 6490 | 5.7
11 | 5270 | 5.33 | 6.71 | 5.48 | COc1ccc(-c2nc3ccccc3c3c2-c2ccc(OC)cc2/C3=N\OCCN2CCCC2)cc1 | 4680 | 6.31
12 | > 10000 | > 10 | > 10 | > 10 | COc1ccc(-c2nc3ccccc3c3c2-c2ccc(OC)cc2/C3=N\OCCN2CCCCC2)cc1 | 8290 | > 10
13 | > 10000 | > 10 | > 10 | > 10 | COc1ccc(-c2nc3ccc(F)cc3c3c2-c2ccc(OC)cc2/C3=N\OCCN2CCCCC2)cc1 | > 10000 | > 10
14 | 880 | 0.58 | 7.83 | 5.74 | Oc1ccc(-c2nc3ccccc3c3c2-c2ccc(O)cc2/C3=N\OCCN2CCCC2)cc1 | 520 | 6.06
15 | 840 | 0.68 | 6.26 | 5.04 | Oc1ccc(-c2nc3ccc(F)cc3c3c2-c2ccc(O)cc2/C3=N\OCCN2CCCC2)cc1 | 640 | 6.48
16 | 500 | 0.93 | 6.06 | 1.55 | CN(C)CCCO/N=C1\c2cc(O)ccc2-c2c(-c3ccc(O)cc3)nc3ccccc3c21 | 670 | 6.94
17 | > 10000 | > 10 | > 10 | > 10 | COc1ccc(-c2nc3ccccc3c3c2-c2ccc(OC)cc2/C3=N\O)cc1 | > 10000 | > 10
18 | 910 | 0.7 | 6.18 | 5.75 | COc1ccc(-c2nc3ccc(F)cc3c3c2-c2ccc(OC)cc2/C3=N\OCCCN(C)C)cc1 | 660 | 0.61
19 | 530 | 0.33 | 6.2 | 5.71 | Oc1ccc(-c2nc3ccc(F)cc3c3c2-c2ccc(OCCN4CCCC4)cc2/C3=N\OCCN2CCCC2)cc1 | 230 | 7.09
20 | 790 | 0.68 | 6.42 | 4.09 | Oc1ccc(-c2nc3ccccc3c3c2-c2ccc(OCCN4CCCC4)cc2/C3=N\OCCN2CCCC2)cc1 | 780 | 6.51
21 | – | 0.078 | > 10 | – | CC[C@@]1(O)C(=O)OCc2c1cc1n(c2=O)Cc2cc3c(CN(C)C)c(O)ccc3nc2-1 [TOPOTECAN] | 220 | > 10
22 | > 10000 | > 10 | > 10 | > 10 | COc1ccc(-c2nc3ccc(F)cc3c3c2-c2ccc(OC)cc2/C3=N\O)cc1 | > 10000 | > 10
23 | 540 | 0.51 | 5.92 | 4.11 | Oc1ccc2c(c1)/C(=N\OCCN1CCCC1)c1c-2c(-c2ccc(OCCN3CCCC3)cc2)nc2ccccc12 | 920 | 0.57
24 | > 10000 | 9.17 | > 10 | – | CCc1c2c(nc3ccc(OC(=O)N4CCC(N5CCCCC5)CC4)cc13)-c1cc3c(c(=O)n1C2)COC(=O)[C@]3(O)CC [IRINOTECAN] | – | > 10
25 | 310 | 0.48 | 6.04 | 1.08 | Oc1ccc2c(c1)/C(=N\OCCN1CCCC1)c1c-2c(-c2ccc(OCCN3CCCC3)cc2)nc2ccc(F)cc12 | 470 | 0.7
26 | 6420 | 5.15 | 6.25 | 6.03 | COc1ccc(-c2nc3ccc(OC)cc3c3c2-c2ccc(OC)cc2/C3=N\OCCN2CCCC2)cc1 | 6170 | 6.54
